Measured values taken from patent US20230310428A1, “EGFR INHIBITOR AND PREPARATION METHOD AND USE THEREOF” (HONGYUN BIOTECH CO., LTD., priority 2020, published 2023).
Where two headings read alike, the source gives them in different places.

Legend:
Assay in all cases: Growth inhibitory activity of compounds on BaF3 cell lines stably transfected with kinase (MTS, 48 h)
Format in all cases: cell-based
[1] = target: T1, various mutants of kinase EGFR (BaF3 cell lines stably transfected with kinase) (Homo sapiens, UniProt P00533)
T1 construct: other: BaF3 cells stably transfected with EGFR Δ19Del; MTS, 48 h; other: BaF3 cell line stably transfected with EGFR Δ19Del
Method: (§1) The activity of compounds against various mutants of kinase EGFR was evaluated by their effect of inhibiting growth of BaF3 cell lines stably transfected with kinase. The specific test method was given as follows:
(§2) 1) Culture medium: DMEM (Dulbecco’s modified eagle medium) or RPMI 1640 (containing 10% fetal bovine serum, 100 µg/mL ampicillin, 100 µg/mL streptomycin).
(§3) 2) Reagent: MTS reaction solution (containing 2 mg/mL of MTS [3-(4,5-dimethylthiazol-2-yl)-5-(3-carboxymethoxyphenyl)-2-(4-sulfophenyl)-2H-tetrazoliu m, inner Salt]; 100 µg/mL of PES ([…])).
(§4) 3) Compound test: cells were incubated into a 96-well culture plate, the volume of cytosol was 90 µL, and then 10 µL of the compound at each gradient concentration was added. That is, the highest concentration was 10 µM, which was diluted stepwise by ⅓, and 8 concentration points were set in total; 0.1% DMSO (dimethyl sulfoxide) was contained in the system. The cell plate with uniformly mixed compound was cultured in a cell culture incubator (37° C.; 5% CO2) for 48 h, then 20 µL of MTS reaction solution was added, uniformly mixed and incubated in the cell culture incubator (37° C.; 5% CO2) for 1-4 h. OD values at 490 nm were measured by a microplate reader (VARIOSKAN FLASH, Thermo). Two parallels were set in each group of experiments, with 0.1% (a final concentration) DMSO as a negative control, and a culture medium without cells and compounds as a blank control. The cell growth inhibition rate was calculated by the following formula: […]
(§5) 4) IC50 calculation: The semi-inhibitory concentration of the compounds acting on cells was calculated using GradPad Prism 5 software according to the measured cell growth inhibition rate.

[2] = target: T2, various mutants of kinase EGFR (BaF3 cell lines stably transfected with kinase) (Homo sapiens, UniProt P00533, C797S/L858R/T790M)
T2 construct: expressed in transfected cells; host or cells: BaF3
Method: as §1, §2, §3, §4, §5

[3] = target: T3, various mutants of kinase EGFR (BaF3 cell lines stably transfected with kinase) (Homo sapiens, UniProt P00533, L858R)
T3 construct: expressed in transfected cells; host or cells: BaF3
Method: as §1, §2, §3, §4, §5

[4] = target: T4, various mutants of kinase EGFR (BaF3 cell lines stably transfected with kinase) (Homo sapiens, UniProt P00533, L858R/T790M)
T4 construct: expressed in transfected cells; host or cells: BaF3
Method: as §1, §2, §3, §4, §5

[5] = target: T5, various mutants of kinase EGFR (BaF3 cell lines stably transfected with kinase) (Homo sapiens, UniProt P00533, T790M/C797S, form not given)
T5 construct: other: BaF3 cells stably transfected with EGFR Δ19Del/T790M/C797S; MTS, 48; other: BaF3 cell line stably transfected with EGFR Δ19Del/T790M/C7
Method: as §1, §2, §3, §4, §5

[6] = target: T6, various mutants of kinase EGFR (BaF3 cell lines stably transfected with kinase) (Homo sapiens, UniProt P00533, T790M, form not given)
T6 construct: other: BaF3 cells stably transfected with EGFR Δ19Del/T790M; MTS, 48 h; other: BaF3 cell line stably transfected with EGFR Δ19Del/T790M; MTS, 48
Method: as §1, §2, §3, §4, §5

[7] = BaF3 cells stably transfected with EGFR Δ19Del, read-out: IC50, growth inhibition, Δ19Del
[8] = BaF3 cells stably transfected with EGFR L858R/T790M/C797S, read-out: IC50, growth inhibition, L858R/T790M/C797S
[9] = BaF3 cells stably transfected with EGFR L858R, read-out: IC50, growth inhibition, L858R
[10] = BaF3 cells stably transfected with EGFR L858R/T790M, read-out: IC50, growth inhibition, L858R/T790M
[11] = BaF3 cells stably transfected with EGFR Δ19Del/T790M/C797S, read-out: IC50, growth inhibition, Δ19Del/T790M/C797S
[12] = BaF3 cells stably transfected with EGFR Δ19Del/T790M, read-out: IC50, growth inhibition, Δ19Del/T790M
[13] = BaF3 cell line stably transfected with EGFR Δ19Del, read-out: Δ19Del growth inhibitory activity IC50
[14] = BaF3 cell line stably transfected with EGFR L858R/T790M/C797S, read-out: L858R/T790M/ C797S growth inhibitory activity IC50
[15] = BaF3 cell line stably transfected with EGFR L858R, read-out: L858R growth inhibitory activity IC50
[16] = BaF3 cell line stably transfected with EGFR L858R/T790M, read-out: L858R/ T790M growth inhibitory activity IC50
[17] = BaF3 cell line stably transfected with EGFR Δ19Del/T790M/C797S, read-out: Δ19Del/T790M/ C797S growth inhibitory activity IC50
[18] = BaF3 cell line stably transfected with EGFR Δ19Del/T790M, read-out: Δ19Del/ T790M growth inhibitory activity IC50

T5 sequence (P00533 with tags, fused parts or gaps DEL746-750/T790M/C797S, form open): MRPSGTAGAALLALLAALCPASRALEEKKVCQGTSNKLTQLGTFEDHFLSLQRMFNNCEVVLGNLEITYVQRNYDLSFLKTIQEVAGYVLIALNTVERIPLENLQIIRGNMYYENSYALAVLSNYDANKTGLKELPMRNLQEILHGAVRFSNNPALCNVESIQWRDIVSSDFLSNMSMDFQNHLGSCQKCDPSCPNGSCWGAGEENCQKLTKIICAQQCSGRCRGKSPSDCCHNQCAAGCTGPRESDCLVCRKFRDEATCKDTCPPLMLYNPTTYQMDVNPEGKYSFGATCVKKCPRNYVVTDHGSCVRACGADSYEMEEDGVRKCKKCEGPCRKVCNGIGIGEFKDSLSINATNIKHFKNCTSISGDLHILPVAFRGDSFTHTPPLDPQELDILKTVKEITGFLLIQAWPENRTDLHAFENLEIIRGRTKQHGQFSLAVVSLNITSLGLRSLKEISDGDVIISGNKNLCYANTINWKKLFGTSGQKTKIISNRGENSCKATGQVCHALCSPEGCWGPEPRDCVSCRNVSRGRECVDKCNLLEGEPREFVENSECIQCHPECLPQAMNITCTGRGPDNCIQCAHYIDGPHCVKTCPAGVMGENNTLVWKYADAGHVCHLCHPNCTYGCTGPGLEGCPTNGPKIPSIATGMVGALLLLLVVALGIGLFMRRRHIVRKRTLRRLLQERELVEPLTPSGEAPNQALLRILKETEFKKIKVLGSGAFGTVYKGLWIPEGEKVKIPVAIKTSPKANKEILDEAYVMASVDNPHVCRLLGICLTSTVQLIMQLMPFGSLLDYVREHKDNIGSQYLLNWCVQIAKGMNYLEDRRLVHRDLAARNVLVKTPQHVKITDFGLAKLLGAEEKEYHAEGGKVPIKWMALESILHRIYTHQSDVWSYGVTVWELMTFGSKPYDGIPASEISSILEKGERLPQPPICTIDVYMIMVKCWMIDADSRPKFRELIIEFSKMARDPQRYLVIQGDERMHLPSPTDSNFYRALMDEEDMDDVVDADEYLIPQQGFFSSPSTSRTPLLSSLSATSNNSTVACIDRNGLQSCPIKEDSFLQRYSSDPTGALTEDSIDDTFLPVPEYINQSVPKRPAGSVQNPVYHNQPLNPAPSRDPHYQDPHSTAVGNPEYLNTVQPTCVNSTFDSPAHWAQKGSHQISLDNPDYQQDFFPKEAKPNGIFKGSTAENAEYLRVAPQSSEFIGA
T1 sequence (P00533 with tags, fused parts or gaps DEL746-750): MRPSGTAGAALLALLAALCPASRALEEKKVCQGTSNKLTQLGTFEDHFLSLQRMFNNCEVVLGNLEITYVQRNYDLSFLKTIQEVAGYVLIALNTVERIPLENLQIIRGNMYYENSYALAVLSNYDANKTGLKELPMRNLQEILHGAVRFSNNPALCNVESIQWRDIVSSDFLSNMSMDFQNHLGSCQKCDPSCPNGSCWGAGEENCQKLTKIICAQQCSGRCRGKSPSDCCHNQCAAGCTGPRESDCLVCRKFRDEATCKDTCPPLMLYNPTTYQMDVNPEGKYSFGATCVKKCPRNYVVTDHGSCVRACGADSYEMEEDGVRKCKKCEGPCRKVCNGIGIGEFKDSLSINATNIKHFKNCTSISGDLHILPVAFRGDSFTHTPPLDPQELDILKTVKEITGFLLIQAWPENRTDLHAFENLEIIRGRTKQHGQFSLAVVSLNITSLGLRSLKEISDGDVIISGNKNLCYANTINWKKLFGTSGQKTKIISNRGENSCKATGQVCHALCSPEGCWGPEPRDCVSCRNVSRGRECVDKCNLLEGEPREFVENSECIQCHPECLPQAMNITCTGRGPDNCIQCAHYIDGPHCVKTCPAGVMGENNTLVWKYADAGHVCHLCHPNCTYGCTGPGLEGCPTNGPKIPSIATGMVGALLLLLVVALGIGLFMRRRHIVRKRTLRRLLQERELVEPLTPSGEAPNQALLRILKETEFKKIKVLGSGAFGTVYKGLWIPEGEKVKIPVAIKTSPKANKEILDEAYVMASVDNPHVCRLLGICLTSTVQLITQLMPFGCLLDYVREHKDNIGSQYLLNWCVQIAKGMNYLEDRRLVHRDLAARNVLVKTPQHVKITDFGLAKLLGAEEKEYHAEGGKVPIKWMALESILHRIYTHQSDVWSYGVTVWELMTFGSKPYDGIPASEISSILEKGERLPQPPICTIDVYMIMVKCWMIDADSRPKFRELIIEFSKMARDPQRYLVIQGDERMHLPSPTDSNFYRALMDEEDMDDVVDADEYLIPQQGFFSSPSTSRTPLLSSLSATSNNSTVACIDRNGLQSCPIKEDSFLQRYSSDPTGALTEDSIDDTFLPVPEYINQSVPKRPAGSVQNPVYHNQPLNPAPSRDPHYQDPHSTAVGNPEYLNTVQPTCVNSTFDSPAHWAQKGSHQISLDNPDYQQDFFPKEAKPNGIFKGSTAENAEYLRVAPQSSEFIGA
T6 sequence (P00533 with tags, fused parts or gaps DEL746-750/T790M, form open): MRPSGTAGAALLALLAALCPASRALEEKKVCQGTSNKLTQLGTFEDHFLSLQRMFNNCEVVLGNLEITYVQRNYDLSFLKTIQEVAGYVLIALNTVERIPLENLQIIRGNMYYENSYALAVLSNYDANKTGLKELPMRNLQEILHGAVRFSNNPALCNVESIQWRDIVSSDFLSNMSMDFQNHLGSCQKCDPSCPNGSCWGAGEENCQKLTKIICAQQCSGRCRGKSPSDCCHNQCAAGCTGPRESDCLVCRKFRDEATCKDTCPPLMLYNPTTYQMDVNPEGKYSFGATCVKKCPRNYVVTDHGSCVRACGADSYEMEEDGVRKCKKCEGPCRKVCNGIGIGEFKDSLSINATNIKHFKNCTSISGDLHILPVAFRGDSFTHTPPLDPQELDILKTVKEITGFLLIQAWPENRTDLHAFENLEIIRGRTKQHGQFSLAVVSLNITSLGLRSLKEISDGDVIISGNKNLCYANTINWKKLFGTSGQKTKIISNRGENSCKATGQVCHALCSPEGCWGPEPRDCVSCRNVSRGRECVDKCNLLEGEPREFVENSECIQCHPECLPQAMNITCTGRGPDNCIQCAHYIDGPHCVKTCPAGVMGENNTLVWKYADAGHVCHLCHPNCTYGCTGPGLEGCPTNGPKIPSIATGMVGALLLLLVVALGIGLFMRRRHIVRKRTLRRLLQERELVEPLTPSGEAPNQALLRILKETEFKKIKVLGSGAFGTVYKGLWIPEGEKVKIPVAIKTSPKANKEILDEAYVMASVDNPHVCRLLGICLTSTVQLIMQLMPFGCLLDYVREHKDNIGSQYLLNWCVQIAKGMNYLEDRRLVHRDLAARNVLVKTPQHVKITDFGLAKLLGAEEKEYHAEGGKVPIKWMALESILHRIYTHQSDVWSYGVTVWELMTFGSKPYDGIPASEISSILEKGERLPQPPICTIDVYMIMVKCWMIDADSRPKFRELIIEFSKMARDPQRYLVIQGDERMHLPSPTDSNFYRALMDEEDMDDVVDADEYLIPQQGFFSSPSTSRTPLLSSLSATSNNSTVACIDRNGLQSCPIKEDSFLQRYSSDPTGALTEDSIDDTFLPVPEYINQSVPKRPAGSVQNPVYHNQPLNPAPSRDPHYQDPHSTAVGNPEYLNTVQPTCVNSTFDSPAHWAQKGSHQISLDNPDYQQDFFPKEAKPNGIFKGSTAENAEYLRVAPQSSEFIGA
T3 sequence (P00533 25-1210 L858R): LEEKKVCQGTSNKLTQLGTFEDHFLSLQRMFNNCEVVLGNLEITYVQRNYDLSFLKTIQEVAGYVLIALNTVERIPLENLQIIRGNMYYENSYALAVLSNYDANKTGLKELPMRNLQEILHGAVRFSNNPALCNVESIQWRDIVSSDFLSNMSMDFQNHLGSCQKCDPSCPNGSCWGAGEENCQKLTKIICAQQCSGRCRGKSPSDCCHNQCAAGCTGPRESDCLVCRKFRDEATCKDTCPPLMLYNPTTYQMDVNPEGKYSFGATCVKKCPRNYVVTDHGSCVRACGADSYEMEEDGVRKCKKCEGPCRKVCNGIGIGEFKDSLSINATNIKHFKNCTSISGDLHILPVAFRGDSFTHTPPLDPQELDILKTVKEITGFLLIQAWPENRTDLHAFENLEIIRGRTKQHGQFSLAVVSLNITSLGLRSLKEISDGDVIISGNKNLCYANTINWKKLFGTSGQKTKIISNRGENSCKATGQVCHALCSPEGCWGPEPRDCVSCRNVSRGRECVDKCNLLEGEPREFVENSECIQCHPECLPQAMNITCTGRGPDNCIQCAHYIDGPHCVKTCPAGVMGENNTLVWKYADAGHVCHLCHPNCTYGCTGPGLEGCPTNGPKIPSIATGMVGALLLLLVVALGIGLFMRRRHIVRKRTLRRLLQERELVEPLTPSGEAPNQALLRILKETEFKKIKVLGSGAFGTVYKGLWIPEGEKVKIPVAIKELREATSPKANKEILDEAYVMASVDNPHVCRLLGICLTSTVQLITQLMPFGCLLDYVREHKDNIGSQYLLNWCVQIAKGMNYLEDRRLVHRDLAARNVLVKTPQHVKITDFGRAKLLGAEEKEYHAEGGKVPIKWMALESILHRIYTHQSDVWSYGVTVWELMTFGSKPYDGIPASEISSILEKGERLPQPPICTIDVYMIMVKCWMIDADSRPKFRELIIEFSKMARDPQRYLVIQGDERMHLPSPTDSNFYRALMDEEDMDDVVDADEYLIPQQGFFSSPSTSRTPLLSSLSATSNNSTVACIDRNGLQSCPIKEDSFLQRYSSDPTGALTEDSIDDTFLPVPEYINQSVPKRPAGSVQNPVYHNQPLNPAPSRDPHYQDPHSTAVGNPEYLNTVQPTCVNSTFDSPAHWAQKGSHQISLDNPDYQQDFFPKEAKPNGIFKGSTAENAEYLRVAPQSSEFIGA

Row | IC50 [1, 7] [nM] | IC50 [2, 8] [nM] | IC50 [3, 9] [nM] | IC50 [4, 10] [nM] | IC50 [5, 11] [nM] | IC50 [6, 12] [nM] | IC50 [1, 13] [nM] | IC50 [2, 14] [nM] | IC50 [3, 15] [nM] | IC50 [4, 16] [nM] | IC50 [5, 17] [nM] | IC50 [6, 18] [nM] | SMILES
1 | 50 to 500 | ≤ 50 | 50 to 500 | ≤ 50 | ≤ 50 | ≤ 50 |  |  |  |  |  |  | COc1cc(N2CCC(N3CCN(C)CC3)CC2)c(C2CC2)cc1Nc1ncc(Cl)c(Nc2ccc3nccnc3c2N(C)S(C)(=O)=O)n1 [Compound I-287]
2 |  |  |  |  |  |  | 500 to 2500 | 500 to 2500 | 500 to 2500 | 500 to 2500 | 500 to 2500 | 500 to 2500 | COc1cc(N2CCN(C)CC2)c(C)cc1Nc1nc(Nc2ccc3nccnc3c2N(C)S(C)(=O)=O)c2[nH]ccc2n1 [II-1-33]
3 |  |  |  |  |  |  | 500 to 2500 | 500 to 2500 | 500 to 2500 | 500 to 2500 | 50 to 500 | 500 to 2500 | CN1CCN(C2CCN(c3ccc(Nc4nc(Nc5ccc6nccnc6c5N(C)S(C)(=O)=O)c5[nH]ccc5n4)c(OC(F)(F)F)c3)CC2)CC1 [II-1-29]
4 |  |  |  |  |  |  | 500 to 2500 | 500 to 2500 | 500 to 2500 | 500 to 2500 | 500 to 2500 | 500 to 2500 | COc1cc(N2CCC(N3CCN(C)CC3)CC2)ccc1Nc1nc(Nc2ccc3nccnc3c2N(C)S(C)(=O)=O)c2occc2n1 [II-1-24]
5 |  |  |  |  |  |  | ≤ 50 | ≤ 50 | ≤ 50 | ≤ 50 | 50 to 500 | 50 to 500 | CCc1cc(Nc2nccc(Nc3ccc4nccnc4c3N(C)S(C)(=O)=O)n2)ccc1N1CCC(N2CCN(C)CC2)CC1 [Compound I-344]
6 |  |  |  |  |  |  | 50 to 500 | 50 to 500 | 50 to 500 | 50 to 500 | ≤ 50 | 50 to 500 | CCc1cnc(Nc2ccc(N3CCC(N4CCN(C)CC4)CC3)cc2OC)nc1Nc1ccc2nccnc2c1N(C)S(C)(=O)=O [Compound I-316]
7 |  |  |  |  |  |  | 50 to 500 | ≤ 50 | 50 to 500 | ≤ 50 | ≤ 50 | ≤ 50 | COc1cc(N2CCC(N(C)C)C2)c(C)cc1Nc1ncc(Br)c(Nc2ccc3nccnc3c2N(C2CC2)S(C)(=O)=O)n1 (stereo not drawn) [Compound I-312]
8 |  |  |  |  |  |  | 50 to 500 | ≤ 50 | ≤ 50 | ≤ 50 | ≤ 50 | 50 to 500 | COc1ccc(N2CCC(O)CC2)cc1Nc1ncc(C2CC2)c(Nc2ccc3nccnc3c2N(C)S(C)(=O)=O)n1 [Compound I-365]
9 |  |  |  |  |  |  | ≤ 50 | ≤ 50 | ≤ 50 | ≤ 50 | ≤ 50 | ≤ 50 | CCc1cc(Nc2ncc(CC)c(Nc3ccc4nccnc4c3N(C)S(C)(=O)=O)n2)ccc1N1CCC(N2CCN(C)CC2)CC1 [Compound I-319]
10 |  |  |  |  |  |  | 50 to 500 | 50 to 500 | 50 to 500 | 50 to 500 | 50 to 500 | 50 to 500 | COc1cc(N2CCC(N3CCN(C)CC3)CC2)c(C(C)C)cc1Nc1ncc(Br)c(Nc2ccc3nccnc3c2NS(C)(=O)=O)n1 [Compound I-406]

The next lines start with the molecule.

Row | SMILES | IC50 [1, 7] [nM] | IC50 [2, 8] [nM] | IC50 [3, 9] [nM] | IC50 [4, 10] [nM] | IC50 [5, 11] [nM] | IC50 [6, 12] [nM] | IC50 [1, 13] [nM] | IC50 [2, 14] [nM] | IC50 [3, 15] [nM] | IC50 [4, 16] [nM] | IC50 [5, 17] [nM] | IC50 [6, 18] [nM]
11 | COc1ccc(CN2CCN(C)CC2)cc1Nc1ncc(Br)c(Nc2ccc3nccnc3c2N(C)S(C)(=O)=O)n1 [Compound I-83] | 50 to 500 | 500 to 2500 | 50 to 500 | 50 to 500 | 500 to 2500 | 500 to 2500 |  |  |  |  |  | 
12 | COc1cc(N2CCC(N(C)C)C2)c(C)cc1Nc1ncc(Cl)c(Nc2ccc3nccnc3c2N(C2CC2)S(C)(=O)=O)n1 (stereo not drawn) [Compound I-246] | ≤ 50 | ≤ 50 | ≤ 50 | ≤ 50 | ≤ 50 | ≤ 50 |  |  |  |  |  | 
13 | CCc1cc(Nc2ncc([N+](=O)[O-])c(Nc3ccc4nccnc4c3N(C)S(C)(=O)=O)n2)c(OC)cc1N1CCC(N2CCN(C)CC2)CC1 [Compound I-32] | ≤ 50 | ≤ 50 | ≤ 50 | ≤ 50 | ≤ 50 | ≤ 50 |  |  |  |  |  | 
14 | CCN(c1c(Nc2nc(Nc3ccc(N4CCC(N5CCN(C)CC5)CC4)cc3OC)ncc2Cl)ccc2nccnc12)S(C)(=O)=O [Compound I-224] | 50 to 500 | ≤ 50 | 50 to 500 | ≤ 50 | ≤ 50 | 50 to 500 |  |  |  |  |  | 
15 | COc1ccc(C(=O)N2CCN(C)CC2)cc1Nc1ncc(Br)c(Nc2ccc3nccnc3c2N(C)S(C)(=O)=O)n1 [Compound I-81] | 50 to 500 | 50 to 500 | 500 to 2500 | 50 to 500 | 500 to 2500 | 50 to 500 |  |  |  |  |  | 
16 | COc1cc(N2CCN(C)CC2)c(C)cc1Nc1ncc(Br)c(Nc2ccc3nccnc3c2N(C)S(C)(=O)=O)n1 [Compound I-12] | 50 to 500 | ≤ 50 | ≤ 50 | ≤ 50 | ≤ 50 | ≤ 50 |  |  |  |  |  | 
17 | CCc1cc(Nc2ncc(C(F)(F)F)c(Nc3ccc4nccnc4c3N(C)S(C)(=O)=O)n2)c(OC)cc1N1CCC(N(C)C)CC1 [Compound I-206] | ≤ 50 | ≤ 50 | ≤ 50 | ≤ 50 | ≤ 50 | ≤ 50 |  |  |  |  |  | 
18 | CCc1cc(Nc2ncc(Br)c(Nc3ccc4nccnc4c3N(C)S(=O)(=O)C(C)C)n2)c(OC)cc1N1CCC(N(C)C)C1 (stereo not drawn) [Compound I-138] | 50 to 500 | 50 to 500 | 50 to 500 | ≤ 50 | ≤ 50 | 50 to 500 |  |  |  |  |  | 
19 | CCc1cc(Nc2ncc(Br)c(Nc3ccc4nccnc4c3N(C3CC3)S(C)(=O)=O)n2)c(OC)cc1N1CCC(N2CCN(C)CC2)CC1 [Compound I-155] | 50 to 500 | ≤ 50 | ≤ 50 | ≤ 50 | ≤ 50 | ≤ 50 |  |  |  |  |  | 
20 | CCc1cc(Nc2ncc(Br)c(Nc3ccc4nccnc4c3N(C3CC3)S(C)(=O)=O)n2)c(OC(F)(F)F)cc1N1CCC(N2CCN(C)CC2)CC1 [Compound I-156] | 50 to 500 | 50 to 500 | 50 to 500 | 50 to 500 | ≤ 50 | ≤ 50 |  |  |  |  |  | 
21 | COc1cc(N2CCC(N(C)C)CC2)c(C)cc1Nc1ncc(Br)c(Nc2ccc3nccnc3c2N(C)S(C)(=O)=O)n1 [Compound I-13] | ≤ 50 | ≤ 50 | ≤ 50 | ≤ 50 | ≤ 50 | ≤ 50 |  |  |  |  |  | 
22 | CCc1cc(Nc2ncc([N+](=O)[O-])c(Nc3ccc4nccnc4c3N(C)S(C)(=O)=O)n2)c(OC)nc1N1CCC(N2CCN(C)CC2)CC1 [Compound I-190] | 50 to 500 | 50 to 500 | 50 to 500 | ≤ 50 | ≤ 50 | ≤ 50 |  |  |  |  |  | 
23 | CCc1cc(Nc2ncc(Br)c(Nc3ccc4nccnc4c3N(C)S(=O)(=O)C3CC3)n2)c(OC)nc1N1CCC(N2CCN(C)CC2)CC1 [Compound I-218] | 50 to 500 | ≤ 50 | 50 to 500 | ≤ 50 | ≤ 50 | ≤ 50 |  |  |  |  |  | 
